As a reminder, the MIC is the lowest concentration found to suppress growth. The term pIC50 denotes the negative decadic logarithm of the IC50, by convention in mol/L. The Papp A→B is the apparent permeability from the apical to the basolateral side of a cell layer. Broadly, the Papp B→A is how fast a substance crosses the layer from the basolateral side. The efflux ratio is a quotient of directional permeabilities that is used to spot active efflux.

pIC50: −log10 of the molar value. Converted amounts (≈) assume the structure as drawn.

Data set [1] relates to Cryptococcus neoformans. Description: Antifungal activity against Cryptococcus neoformans assessed as inhibition of fungal growth. The data set is classed as functional.
Data set [2] can be described thus: Antifungal activity against Cryptococcus gattii VGI assessed as inhibition of fungal growth. The data set is classed as functional.
The test system of data set [3] is Cryptococcus neoformans. Description: Antifungal activity against Cryptococcus neoformans ATCC 24067 assessed as inhibition of fungal growth incubated for 24 to 48 hrs by CLSI based broth microdilution method. The data set is classed as functional. The following applies: time 24-48 hrs. A general note: In broth dilution the organism is exposed to a series of concentrations in liquid medium.

Data set [4] in a line: Antifungal activity against Cryptococcus gattii ATCC 24065 assessed as inhibition of fungal growth incubated for 24 to 48 hrs by CLSI protocol based broth microdilution method. The data set is classed as functional, Cryptococcus gattii VGI. The following applies: time 24-48 hrs.
Data set [5] relates to Candida albicans. Description: Antifungal activity against Candida albicans SC5314 assessed as inhibition of fungal growth incubated for 24 to 48 hrs by CLSI protocol based broth microdilution method. The following applies: time 24-48 hrs. It counts as functional.
In a further data set the test system is Nakaseomyces glabratus. Description: Antifungal activity against Candida glabrata ATCC 2001 assessed as inhibition of fungal growth incubated for 24 to 48 hrs by CLSI protocol based broth microdilution method. The data set is classed as functional. To be noted: time 24-48 hrs.
A further data set concerns Pichia kudriavzevii. Description: Antifungal activity against Candida krusei ATCC 20298 assessed as inhibition of fungal growth incubated for 24 to 48 hrs by CLSI protocol based broth microdilution method. The data set is classed as functional. The following applies: time 24-48 hrs.
The test system of a further data set is Candida parapsilosis. Description: Antifungal activity against Candida parapsilosis ATCC 22019 assessed as inhibition of fungal growth incubated for 24 to 48 hrs by CLSI protocol based broth microdilution method. It counts as functional. The following applies: Lodderomyces parapsilosis, time 24-48 hrs.
The next data set concerns Candida tropicalis. Description: Antifungal activity against Candida tropicalis ATCC 750 assessed as inhibition of fungal growth incubated for 24 to 48 hrs by CLSI protocol based broth microdilution method. It counts as functional. The following applies: time 24-48 hrs.
A further data set concerns [Candida] auris. Description: Antifungal activity against Candida auris COLO 01 assessed as inhibition of fungal growth incubated for 24 to 48 hrs by CLSI protocol based broth microdilution method. To be noted: Candidozyma auris, time 24-48 hrs. The data set is classed as functional.
Data set [6] can be described thus: Cytotoxicity against human PBMC cells assessed as inhibition of cell growth incubated for 24 to 48 hrs by MTT assay. It counts as toxicity, cell-based. (In general: Formazan colour is commonly taken as a measure of viable cells.)
In the next data set the test system is Caco-2. Description: Cytotoxicity against human Caco-2 cells assessed as reduction in cell viability at 10 to 40 microg/ml measured upto 12 hrs by MTT assay. The data set is classed as functional. The following applies: dose 10-40 µg/ml, at 10 to 40 µg/mL.
Data set [7] in a line: Apparent permeability across apical to basolateral side in human Caco-2 cells measured after 30 to 180 mins by HPLC-MS analysis. The data set is classed as ADME, cell-based. To be noted: time 30-180 min. On the technique in general: Passage across Caco-2 layers is used to estimate intestinal permeability.
Data set [8] in a line: Apparent permeability across basolateral to apical side in human Caco-2 cells measured after 30 to 180 mins by HPLC-MS analysis. The following applies: time 30-180 min. The data set is classed as ADME, cell-based.
A short description of data set [9]: Efflux ratio of apparent permeability across basolateral to apical over apical to basolateral side in human Caco-2 cells measured after 30 to 180 mins by HPLC-MS analysis. It counts as ADME, cell-based. To be noted: time 30-180 min.
The test system of data set [10] is Cryptococcus neoformans. Description: Antifungal activity against Cryptococcus neoformans H99 infected in Tenebrio molitor larvae assessed as survival rate of larvae at 80 microg/ml measured after 24 hrs. It counts as functional.
Data set [11] has as its system Candida albicans. Description: Antifungal activity against Candida albicans assessed as inhibition of fungal growth. The data set is classed as functional.

In the case of `C(=N\Nc1nc(-c2ccccc2)cs1)/C1CCCCC1`, the MIC (in the data set on Cryptococcus neoformans [1]; in data set [2]) was 0.9 µM (≈ 0.257 µg/mL) each time.
Consider `COc1ccc(-c2csc(N/N=C/C3CCCCC3)n2)cc1`, for which the MIC in the data set on Cryptococcus neoformans [1] stood at 0.79 µM (≈ 0.249 µg/mL); in data set [2] it was 1.58 µM (≈ 0.498 µg/mL).
Turning to `CCOC(=O)Cc1csc(N/N=C(\C)CCC(=O)O)n1`, the MIC with Cryptococcus neoformans [3] is 3.2 µM (≈ 0.958 µg/mL); in data set [4], 3.2 µM (≈ 0.958 µg/mL); in the data set on Candida albicans [5], 3.2 µM (≈ 0.958 µg/mL); with Nakaseomyces glabratus it was 52.2 µM (≈ 15.6 µg/mL); in the data set on Pichia kudriavzevii it was 0.8 µM (≈ 0.239 µg/mL); in the data set on Candida parapsilosis it was 1.6 µM (≈ 0.479 µg/mL). The MIC in the data set with Candida tropicalis is 0.8 µM (≈ 0.239 µg/mL); in data set [Candida] auris, 1.6 µM (≈ 0.479 µg/mL). Moreover, the pIC50 in data set [6] was below 3.30. Further, in the data set on Caco-2, the Activity is above 70%. In data set [7], the Papp A→B amounted to 1.47 ×10⁻⁶ cm/s. Further, the Papp B→A in [8] was 5.26 ×10⁻⁶ cm/s. Also, the efflux ratio in [9] was 3.58. The survival at 80 µg/mL in the data set with Cryptococcus neoformans [10] came to 63%.
Turning to `Cc1ccc(NC(=O)c2ccc(CN3CCN(C)CC3)cc2)cc1Nc1nccc(-c2cccnc2)n1` [IMATINIB], the pIC50 in data set [6] was 3.80.
Consider `COc1ccc(-c2csc(NN=C(C)CCO)n2)cc1`, for which the MIC in the data set with Cryptococcus neoformans [1] was 0.45 µM (≈ 0.131 µg/mL); in data set [2], 0.9 µM (≈ 0.262 µg/mL).
Take `CCOC(=O)/C(C)=N/Nc1nc(-c2ccc(OC)cc2)cs1`: the MIC (with Cryptococcus neoformans [3]; in [4]; in the data set with Candida albicans [5]; in the data set on Nakaseomyces glabratus; with Pichia kudriavzevii; in the data set with Candida parapsilosis) was above 125 µM throughout. Also, the MIC (in the data set on Candida tropicalis; in [Candida] auris) was above 125 µM each time.
Consider `CCOC(=O)/C(C)=N/Nc1nc(-c2ccc(Br)cc2)cs1`, for which the MIC was determined as 84.9 µM (≈ 31.3 µg/mL) in the data set on Cryptococcus neoformans [3]; 84.9 µM (≈ 31.3 µg/mL) in [4]; 84.9 µM (≈ 31.3 µg/mL) in the data set with Candida albicans [5]; 21.2 µM (≈ 7.81 µg/mL) in the data set with Nakaseomyces glabratus; 10.6 µM (≈ 3.9 µg/mL) in the data set on Pichia kudriavzevii; 84.9 µM (≈ 31.3 µg/mL) in the data set with Candida parapsilosis. In addition, the MIC (in the data set on Candida tropicalis; in data set [Candida] auris) was 21.2 µM (≈ 7.81 µg/mL) each time.
`C/C(CCC(=O)O)=N\Nc1nc(-c2ccc(Cl)cc2)cs1`: the MIC in the data set with Cryptococcus neoformans [3] worked out at 3 µM (≈ 0.971 µg/mL); in data set [4] it was 1.5 µM (≈ 0.486 µg/mL); in the data set with Candida albicans [5], 1.5 µM (≈ 0.486 µg/mL); in the data set with Nakaseomyces glabratus, 96.5 µM (≈ 31.2 µg/mL); with Pichia kudriavzevii, 1.5 µM (≈ 0.486 µg/mL); in the data set on Candida parapsilosis, 6 µM (≈ 1.94 µg/mL). The values for the MIC (with Candida tropicalis; in [Candida] auris) were 6 µM (≈ 1.94 µg/mL) and 0.7 µM (≈ 0.227 µg/mL), respectively.
Regarding `COc1ccc(-c2csc(N/N=C(\C)CCC(=O)O)n2)cc1`, the MIC in the data set with Cryptococcus neoformans [3] amounted to 0.8 µM (≈ 0.256 µg/mL); in data set [4], 0.2 µM (≈ 0.0639 µg/mL); in the data set on Candida albicans [5], 3 µM (≈ 0.958 µg/mL); in the data set on Nakaseomyces glabratus it was 48.9 µM (≈ 15.6 µg/mL); with Pichia kudriavzevii it was 1.5 µM (≈ 0.479 µg/mL); in the data set on Candida parapsilosis it was 3 µM (≈ 0.958 µg/mL). Also, the MIC with Candida tropicalis came out at 6.1 µM (≈ 1.95 µg/mL); in data set [Candida] auris, 1.5 µM (≈ 0.479 µg/mL).
As to `c1ccc(-c2csc(NN=C3CCCC3)n2)cc1`, the MIC (in the data set with Cryptococcus neoformans [1]; in data set [2]) was 1.94 µM (≈ 0.499 µg/mL) each time.
For the compound `CCN1CCCC(/C=N/Nc2nc(-c3ccc(Br)cc3)cs2)C1` (stereo not drawn), the MIC in the data set on Cryptococcus neoformans [3] was 72.9 µM (≈ 28.7 µg/mL); in data set [4] it was 72.9 µM (≈ 28.7 µg/mL); in the data set on Candida albicans [5], 39.8 µM (≈ 15.7 µg/mL); with Nakaseomyces glabratus, above 125 µM; in the data set on Pichia kudriavzevii it was 2.5 µM (≈ 0.983 µg/mL); in the data set on Candida parapsilosis it was 19.9 µM (≈ 7.83 µg/mL). Further, the results for the MIC (in the data set on Candida tropicalis; in [Candida] auris) were 79.7 µM (≈ 31.4 µg/mL) and 19.9 µM (≈ 7.83 µg/mL), respectively.
In the case of `CCOC(=O)c1sc(N/N=C\C2CCCCC2)nc1C`, the MIC (in the data set with Cryptococcus neoformans [3]; in data set [4]; in the data set with Candida albicans [5]; in the data set with Nakaseomyces glabratus; in the data set with Pichia kudriavzevii; in the data set with Candida parapsilosis) was above 125 µM throughout. Moreover, the MIC (in the data set with Candida tropicalis; in [Candida] auris) was above 125 µM throughout.
For the compound `CC(CCO)=NNc1nc(-c2ccc(C#N)cc2)cs1`, the MIC turned out to be 1.95 µM (≈ 0.558 µg/mL) in the data set on Candida albicans [11], 0.12 µM (≈ 0.0344 µg/mL) in the data set on Cryptococcus neoformans [1] and 0.12 µM (≈ 0.0344 µg/mL) in [2].
As to `C[C@@H]1[C@H](O)[C@@H](C)/C=C/C=C/C=C/C=C/C=C/C=C/C=C/[C@H](O[C@@H]2O[C@H](C)[C@@H](O)[C@H](N)[C@@H]2O)C[C@@H]2O[C@](O)(C[C@@H](O)C[C@@H](O)[C@H](O)CC[C@@H](O)C[C@@H](O)CC(=O)O[C@H]1C)C[C@H](O)[C@H]2C(=O)O` [AMPHOTERICIN B], the MIC in the data set with Cryptococcus neoformans [3] was 0.5 µM (≈ 0.462 µg/mL); in data set [4], 1.1 µM (≈ 1.02 µg/mL); in the data set with Candida albicans [5], 2.2 µM (≈ 2.03 µg/mL); in the data set with Nakaseomyces glabratus, 1.1 µM (≈ 1.02 µg/mL); in the data set on Pichia kudriavzevii, 4.3 µM (≈ 3.97 µg/mL); with Candida parapsilosis, 2.2 µM (≈ 2.03 µg/mL). Moreover, the MIC in the data set with Candida tropicalis is 0.5 µM (≈ 0.462 µg/mL); in data set [Candida] auris, 4.3 µM (≈ 3.97 µg/mL).
On to `Nc1ccn([C@@H]2O[C@H](CO)[C@@H](O)[C@@H]2O)c(=O)n1` [CYTARABINE], for which, in [6], the pIC50 is 3.74.

Source of the values: ChEMBL document CHEMBL5375986, “Discovery of Lead 2-Thiazolylhydrazones with Broad-Spectrum and Potent Antifungal Activity” (J Med Chem, 2023).
